# Target: T1, human PAD4 (Homo sapiens, UniProt Q9UM07)
# T1 construct: human PAD4 (NM_012387), A2P663, was PCR amplified; His-SUMO (N, cleaved yes); made in house; host or cells: E. coli BL21(DE3)
# Test: In vitro PAD4 BAEE biochemical assay
# Conditions: human PAD4, BAEE substrate; 5 nM PAD4, 2 mM calcium chloride, 3 mM BAEE; geometric mean of multiple experiments
# In short: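 Tag-free recombinant hPAD4 (5 nM), 2 mM CaCl2, 3 mM BAEE, 50 mM MOPS pH 7.6, 2 mM DTT; 30 min compound preincubation, 2 h reaction, all 25 °C. EDTA quench; ammonia read via o-phthalaldehyde amine coupling, 1 h.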
# T1 sequence (Q9UM07 2-663): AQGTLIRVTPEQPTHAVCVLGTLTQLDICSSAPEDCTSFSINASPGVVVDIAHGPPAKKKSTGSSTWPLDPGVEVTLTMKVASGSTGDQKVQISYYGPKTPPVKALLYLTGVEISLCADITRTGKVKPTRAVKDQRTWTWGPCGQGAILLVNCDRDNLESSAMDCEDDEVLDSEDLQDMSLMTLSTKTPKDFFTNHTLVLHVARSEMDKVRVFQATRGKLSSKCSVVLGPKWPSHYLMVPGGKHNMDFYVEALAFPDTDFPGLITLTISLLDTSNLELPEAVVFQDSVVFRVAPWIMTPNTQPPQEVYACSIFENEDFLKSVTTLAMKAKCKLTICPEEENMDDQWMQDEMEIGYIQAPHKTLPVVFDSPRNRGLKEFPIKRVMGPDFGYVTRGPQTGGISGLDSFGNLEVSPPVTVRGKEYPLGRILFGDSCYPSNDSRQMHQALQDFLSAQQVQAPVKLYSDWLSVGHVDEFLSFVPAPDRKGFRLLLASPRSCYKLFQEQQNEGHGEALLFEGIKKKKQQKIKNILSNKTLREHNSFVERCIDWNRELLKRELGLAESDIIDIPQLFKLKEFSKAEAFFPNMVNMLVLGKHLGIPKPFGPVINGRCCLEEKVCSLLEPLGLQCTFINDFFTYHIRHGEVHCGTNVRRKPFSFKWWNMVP
row,IC50,Compound
1,43 nM,"COc1cc(C(=O)N2[C@H]3CC[C@@H]2[C@H](N)C3)cc2nc(-c3cc4ccc([C@@H](C)NC(=O)[C@@H](C)O)nc4n3CC3CC3)c(C)n12 [Example 91, (2~{R})-~{N}-[(1~{R})-1-[2-[7-[(1~{R},2~{R},4~{S})-2-amino-7-azabicyclo[2.2.1]heptane-7-carbonyl]-5-methoxy-3-methylimidazo [1,2-a]pyridin-2-yl]-1-(cyclopropylmethyl)pyrrolo [2,3-b]pyridin-6-yl]ethyl]-2-hydroxypropanamide]"
2,59.7 nM,"COc1cc(C(=O)N2[C@H]3CC[C@@H]2[C@H](N)C3)cc2nc(-c3cc4ccc([C@@H](C)NC(=O)C(C)(O)C5CC5)nc4n3CC3CC3)c(C)n12 (stereo partly drawn) [Example 92, ~{N}-[(1~{R})-1-[2-[7-[(1~ {R},2~{R},4~{S})-2-amino-7-azabicyclo[2.2.1]heptane-7-carbonyl]-5-methoxy-3-methylimidazo [1,2-a]pyridin-2-yl]-1-(cyclopropylmethyl)pyrrolo [2,3-b]pyridin-6-yl]ethyl]-2-cyclopropyl-2-hydroxypropanamide]"
3,68.4 nM,"COc1cc(C(=O)N2[C@H]3CC[C@@H]2[C@H](N)C3)cc2nc(-c3cc4ccc([C@@H](C)NC(=O)C(C)(O)C(C)C)nc4n3CC3CC3)c(C)n12 (stereo partly drawn) [Example 93, ~{N}-[(1~{R})-1-[2-[7-[(1~ {R},2~{R},4~{S})-2-amino-7-azabicyclo[2.2.1]heptane-7-carbonyl]-5-methoxy-3-methylimidazo [1,2-a]pyridin-2-yl]-1-(cyclopropylmethyl)pyrrolo [2,3-b]pyridin-6-yl]ethyl]-2-hydroxy-2,3-dimethylbutanamide]"
4,38 nM,"COc1cc(C(=O)N2[C@H]3CC[C@@H]2[C@H](N)C3)cc2nc(-c3cc4ccc([C@@H](C)NC(=O)[C@H](C)O)nc4n3CC3CC3)c(C)n12 [Example 94, (2~{S})-~{N}-[(1~{R})-1-[2-[7-[(1~{R},2~{R},4~{S})-2-amino-7-azabicyclo [2.2.1]heptane-7-carbonyl]-5-methoxy-3-methylimidazo [1,2-a]pyridin-2-yl]-1-(cyclopropylmethyl)pyrrolo [2,3-b]pyridin-6-yl]ethyl]-2-hydroxypropanamide]"
5,43.5 nM,"COc1cc(C(=O)N2[C@H]3CC[C@@H]2[C@H](N)C3)cc2nc(-c3cc4ccc([C@@H](C)NC(=O)C5(O)CCC5)nc4n3CC3CC3)c(C)n12 [Example 95, ~{N}-[(1~{R})-1-[2-[7-[(1~ {R},2~{R},4~{S})-2-amino-7-azabicyclo[2.2.1]heptane-7-carbonyl]-5-methoxy-3-methylimidazo[1,2-a]pyridin-2-yl]-1-(cyclopropylmethyl)pyrrolo [2,3-b]pyridin-6-yl]ethyl]-1-hydroxycyclobutane-1-carboxamide]"
6,39 nM,COc1cc(C(=O)N2[C@H]3CC[C@@H]2[C@H](N)C3)cc2nc(-c3cc4ccc([C@@H](C)NC(=O)CN=S(C)(C)=O)nc4n3CC3CC3)c(C)n12 [Example 96]
7,30.6 nM,"COc1cc(C(=O)N2[C@H]3CC[C@@H]2[C@H](N)C3)cc2nc(-c3cc4ccc([C@@H](C)NC(=O)C5(O)CC5)nc4n3CC3CC3)c(C)n12 [Example 97, ~{N}-[(1~{R})-1-[2-[7-[(1~{R},2~{R},4~{S})-2-amino-7-azabicyclo[2.2.1]heptane-7-carbonyl]-5-methoxy-3-methylimidazo [1,2-a]pyridin-2-yl]-1-(cyclopropylmethyl)pyrrolo [2,3-b]pyridin-6-yl]ethyl]-1-hydroxycyclopropane-1-carboxamide]"
8,33.2 nM,COc1cc(C(=O)N2[C@H]3CC[C@@H]2[C@H](N)C3)cc2nc(-c3cc4ccc([C@@H](C)NC(=O)C5CCOCC5)nc4n3CC3CC3)c(C3CC3)n12 [Example 98]
9,76.7 nM,"COc1cc(C(=O)N2C[C@H]3CC[C@@H]2[C@@H]3N)cc2nc(-c3cc4ccc([C@@H](C)NC(=O)[C@H]5CC5(F)F)nc4n3CC3CC3)c(C)n12 [Example 100, (R)-N-((R)-1-(2-(7-((1R,4R,7R)-7-amino-2-azabicyclo[2.2.1]heptane-2-carbonyl)-5-methoxy-3-methylimidazo[1,2-a]pyridin-2-yl)-1-(cyclopropylmethyl)-1H-pyrrolo[2,3-b]pyridin-6-yl)ethyl)-2,2-difluorocyclopropane-1-carboxamide]"
10,22.5 nM,COc1cc(C(=O)N2[C@H]3CC[C@@H]2[C@H](N)C3)cc2nc(-c3cc4ccc([C@@H](C)NC(=O)C5CCC5)nc4n3CC3CC3)c(C)n12 [Example 101]
11,46.6 nM,"COc1cc(C(=O)N2[C@H]3CC[C@@H]2[C@H](N)C3)cc2nc(-c3cc4ccc([C@@H](C)NC(=O)C5(C)CC5(F)F)nc4n3CC3CC3)c(C)n12 (stereo partly drawn) [Example 102, ~{N}-[(1~{R})-1-[2-[7-[(1~{R},2~{R},4~{S})-2-amino-7-azabicyclo[2.2.1]heptane-7-carbonyl]-5-methoxy-3-methylimidazo [1,2-a]pyridin-2-yl]-1-(cyclopropylmethyl)pyrrolo [2,3-b]pyridin-6-yl]ethyl]-2,2-difluoro-1-methylcyclopropane-1-carboxamide]"
12,66.6 nM,"COc1cc(C(=O)N2[C@H]3CC[C@@H]2[C@H](N)C3)cc2nc(-c3cc4ccc([C@@H](C)NC(=O)C5C(C)(C)C5(F)F)nc4n3CC3CC3)c(C)n12 (stereo partly drawn) [Example 103, ~{N}-[(1~{R})-1-[2-[7-[(1~{R},2~{R},4~{S})-2-amino-7-azabicyclo[2.2.1]heptane-7-carbonyl]-5-methoxy-3-methylimidazo [1,2-a]pyridin-2-yl]-1-(cyclopropylmethyl)pyrrolo [2,3-b]pyridin-6-yl]ethyl]-2,2-difluoro-3,3-dimethylcyclopropane-1-carboxamide]"
13,88.3 nM,"COc1cc(C(=O)N2[C@H]3CC[C@@H]2[C@H](N)C3)cc2nc(-c3cc4ccc([C@@H](C)NC(=O)c5ccon5)nc4n3CC3CC3)c(C)n12 [Example 104, ~{N}-[(1~{R})-1-[2-[7-[(1~{R},2~{R},4~{S})-2-amino-7-azabicyclo[2.2.1]heptane-7-carbonyl]-5-methoxy-3-methylimidazo [1,2-a]pyridin-2-yl]-1-(cyclopropylmethyl)pyrrolo [2,3-b]pyridin-6-yl]ethyl]-1,2-oxazole-3-carboxamide]"
14,56 nM,"COc1cc(C(=O)N2[C@H]3CC[C@@H]2[C@H](N)C3)cc2nc(-c3cc4ccc([C@@H](C)NC(=O)c5cocn5)nc4n3CC3CC3)c(C)n12 [Example 105, ~{N}-[(1~{R})-1-[2-[7-[(1~{R},2~{R},4~{S})-2-amino-7-azabicyclo[2.2.1]heptane-7-carbonyl]-5-methoxy-3-methylimidazo [1,2-a]pyridin-2-yl]-1-(cyclopropylmethyl)pyrrolo [2,3-b]pyridin-6-yl]ethyl]-1,3-oxazole-4-carboxamide]"
15,40.6 nM,"COc1cc(C(=O)N2[C@H]3CC[C@@H]2[C@H](N)C3)cc2nc(-c3cc4ccc([C@@H](C)NC(=O)c5cnn(C6CC6)c5)nc4n3CC3CC3)c(C)n12 [Example 106, ~{N}-[(1~{R})-1-[2-[7-[(1~{R},2~{R},4~{S})-2-amino-7-azabicyclo [2.2.1]heptane-7-carbonyl]-5-methoxy-3-methylimidazo [1,2-a]pyridin-2-yl]-1-(cyclopropylmethyl)pyrrolo [2,3-b]pyridin-6-yl]ethyl]-1-cyclopropylpyrazole-4-carboxamide]"
16,44.3 nM,COc1cc(C(=O)N2[C@H]3CC[C@@H]2[C@H](N)C3)cc2nc(-c3cc4ccc([C@@H](C)NC(=O)c5cnn(C(F)F)c5)nc4n3CC3CC3)c(C)n12 [Example 107]
17,52.3 nM,"COc1cc(C(=O)N2[C@H]3CC[C@@H]2[C@H](N)C3)cc2nc(-c3cc4ccc([C@@H](C)NC(=O)c5ccn(C)n5)nc4n3CC3CC3)c(C)n12 [Example 108, ~{N}-[(1~{R})-1-[2-[7-[(1~{R},2~{R},4~{S})-2-amino-7-azabicyclo[2.2.1]heptane-7-carbonyl]-5-methoxy-3-methylimidazo [1,2-a]pyridin-2-yl]-1-(cyclopropylmethyl)pyrrolo [2,3-b]pyridin-6-yl]ethyl]-1-methylpyrazole-3-carboxamide]"
18,31.7 nM,"COc1cc(C(=O)N2[C@H]3CC[C@@H]2[C@H](N)C3)cc2nc(-c3cc4ccc([C@@H](C)NC(=O)C5(C)COC5)nc4n3CC3CC3)c(C3CC3)n12 [Example 109, ~{N}-[(1~{R})-1-[2-[7-[(1~{R},2~{R},4~{S})-2-amino-7-azabicyclo[2.2.1]heptane-7-carbonyl]-3-cyclopropyl-5-methoxyimidazo [1,2-a]pyridin-2-yl]-1-(cyclopropylmethyl)pyrrolo [2,3-b]pyridin-6-yl]ethyl]-3-methyloxetane-3-carboxamide]"
19,305 nM,"CCCO[C@@H]1CCN(C(=O)c2cc(OC)n3c(C)c(-c4cc5ccc([C@@H](C)NC(=O)c6ccccc6)nc5n4CC4CC4)nc3c2)C[C@@H]1N [Example 111, ~{N}-[(1~{R})-1-[2-[7-[(3~{S},4~{R})-3-amino-4-propoxypiperidine-1-carbonyl]-5-methoxy-3-methylimidazo[1,2-a]pyridin-2-yl]-1-(cyclopropylmethyl)pyrrolo [2,3-b]pyridin-6-yl]ethyl] benzamide]"
20,307 nM,"CCO[C@@H]1CCN(C(=O)c2cc(OC)n3c(C)c(-c4cc5ccc([C@@H](C)NC(=O)c6ccccc6)nc5n4CC4CC4)nc3c2)C[C@@H]1N [Example 112, ~{N}-[(1~{R})-1-[2-[7-[(3~{S},4~{R})-3-amino-4-ethoxypiperidine-1-carbonyl]-5-methoxy-3-methylimidazo[1,2-a]pyridin-2-yl]-1-(cyclopropylmethyl)pyrrolo [2,3-b]pyridin-6-yl]ethyl]benzamide]"
21,220 nM,"COc1cc(C(=O)N2CC[C@@H](OC)[C@@H](N)C2)cc2nc(-c3cc4ccc([C@@H](C)NC(=O)c5ccccc5)nc4n3CC3CC3)c(C)n12 [Example 114, ~{N}-[(1~{R})-1-[2-[7-[(3~{S},4~{R})-3-amino-4-methoxypiperidine-1-carbonyl]-5-methoxy-3-methylimidazo [1,2-a]pyridin-2-yl]-1-(cyclopropylmethyl)pyrrolo [2,3-b]pyridin-6-yl]ethyl]benzamide]"

# From patent US12240862B2, “Inhibitors of peptidylarginine deiminases” (Gilead Sciences, Inc., priority 2020, dated 2025)
